1 molecule from patent EP0489581A2, “Cosmetic composition” (UNILEVER PLC, priority 1990, dated 1992) can be followed below.

One test concerns hair growth. The test is described as follows: Observation of hair growth with ethyl nicotinate in a shampoo. It is filed as in vivo. The conditions noted are these: included in a shampoo, in the absence of any other hair growth promoter.
The test system of another test is head, forehead and neck. The test is described as follows: Half-head wash with ethyl nicotinate shampoo against placebo shampoo (erythema meter, Cyclops pyrometer, sensations). It is filed as in vivo, human. The method, then: EXPERIMENTS WITH ETHYL NICOTINATE ESTER IN SHAMPOO Five subjects washed one side of the head, forehead and neck with a shampoo the same as in Example 5 but containing a varying level of ethyl nicotinate for a period ranging from one to five minutes, whilst the other side was washed with a placebo shampoo of corresponding composition. The changes occurring on the various symmetrical sites around the head were assessed with the erythema meter and a "Cyclops" pyrometer in sequence. The readings were continued for between 45 minutes and one hour.

As to `CCOC(=O)c1cccnc1` [EtNic, ethyl nicotinate], in the test with hair growth, the hair growth entry is on record as “promote hair growth”. In addition, the temperature entry in the test on head, forehead and neck (active sites against placebo sites, Cyclops pyrometer, wash of one to five minutes) is “either rose or did not fall so low as the placebo sites”. In addition, the redness result in the test with head, forehead and neck (active sites against placebo sites, erythema meter, wash of one to five minutes) is on record as “increased the redness”. For the same molecule, the “longer term sensations of a pleasant nature, duration after treatment” value in the test on head, forehead and neck (crown of the head) is on record as “up to two”.
